Here are results for two compounds from patent publication US20080113974A1, “Heterocyclic Oxime Compounds, A Process For Their Preparation And Pharmaceutical Compositions Containing Them” (LES LABORATOIRES SERVIER, priority 2005, published 2008).

This data set deals with ob/ob mouse. Nature of the data set: Antidiabetic and hypolipaemic effect in the ob/ob mouse. The data set is classed as in vivo. Particulars: dose of 3 mg/kg; for variation in body weight: four days, body weight measured daily. The protocol: The 10-week-old female ob/ob mouse (Harlan) is used for the in vivo tests. The animals are kept in a light-darkness cycle of 12 hours at 25° C. The mouse has a basal hyperglycaemia of 2 g/l. The animals are randomly selected with regard to their glycaemia to form groups of six. […] […] The control groups receive the solvents under the same conditions as the treated groups.
The activity of the products is evaluated by measuring glycaemia, triglycerides and insulinaemia 24 hours after the final administration and by measuring body weight daily.

[1] abbreviates: twice per day for four days, 24 hours after the final administration.

On to `CCOC(Cc1ccc(OCCN2C(=O)COc3ccc(C(=NO)c4ccccc4)cc32)cc1)C(=O)O` (centres unmarked) [Example 11], for which the “variation in body weight” value is listed as “insignificant variation”. In addition, under setting [1], the reduction in glycaemia was 25%, the reduction in insulinaemia was determined as 22% and the reduction in triglycerides stood at 45%.
As for `CN(CCOc1ccc(CC2SC(=O)NC2=O)cc1)c1ccccn1` (centres unmarked) [rosiglitazone, reference compound], the “variation in body weight” value was “significant increase”.
